Source: patent US20240150377A1, “MODULATORS OF CYSTIC FIBROSIS TRANSMEMBRANE CONDUCTANCE REGULATOR” (VERTEX PHARMACEUTICALS INCORPORATED, priority 2020, published 2024)
Like-named read-outs stand apart in the source and are kept apart here.

Target: T1, CFTR (Homo sapiens, UniProt P13569, DEL508-508)
T1 construct: endogenous in cells; host or cells: primary human bronchial epithelial cells from CF subjects (F508del/MF-HBE), differentiated at air-liquid interface
Experiment: HBE assay: Ussing chamber assay of CFTR-mediated short-circuit currents
Type: cell-based
Conditions: for EC50: read-out: HBE EC50
Method in brief: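 CFTR-mediated Isc (μA/cm²) equals the peak response to apical 20 μM forskolin minus the residual after a 20 μM each BPO/GlyH-101/CFTR inhibitor 172 cocktail, recorded in Ussing chambers at Vhold 0 mV, 37 °C, pH 7.4, with 30 μM apical amiloride. Cells were F508del/MF HBE cultures preincubated 18-24 h with corrector (concentration range or 10 μM) plus 1 μM ivacaftor in 20% human serum.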

[1] = Table 11, read-out: HBE Max Activity (%)
[2] = Table 11, read-out: HBE Activity at 10 μM (%)
[3] = Table 10, read-out: HBE activity at 10 (μM) (%)
[4] = Table 10, read-out: HBE Max activity (%)

T1 sequence (P13569 with tags, fused parts or gaps DEL508-508): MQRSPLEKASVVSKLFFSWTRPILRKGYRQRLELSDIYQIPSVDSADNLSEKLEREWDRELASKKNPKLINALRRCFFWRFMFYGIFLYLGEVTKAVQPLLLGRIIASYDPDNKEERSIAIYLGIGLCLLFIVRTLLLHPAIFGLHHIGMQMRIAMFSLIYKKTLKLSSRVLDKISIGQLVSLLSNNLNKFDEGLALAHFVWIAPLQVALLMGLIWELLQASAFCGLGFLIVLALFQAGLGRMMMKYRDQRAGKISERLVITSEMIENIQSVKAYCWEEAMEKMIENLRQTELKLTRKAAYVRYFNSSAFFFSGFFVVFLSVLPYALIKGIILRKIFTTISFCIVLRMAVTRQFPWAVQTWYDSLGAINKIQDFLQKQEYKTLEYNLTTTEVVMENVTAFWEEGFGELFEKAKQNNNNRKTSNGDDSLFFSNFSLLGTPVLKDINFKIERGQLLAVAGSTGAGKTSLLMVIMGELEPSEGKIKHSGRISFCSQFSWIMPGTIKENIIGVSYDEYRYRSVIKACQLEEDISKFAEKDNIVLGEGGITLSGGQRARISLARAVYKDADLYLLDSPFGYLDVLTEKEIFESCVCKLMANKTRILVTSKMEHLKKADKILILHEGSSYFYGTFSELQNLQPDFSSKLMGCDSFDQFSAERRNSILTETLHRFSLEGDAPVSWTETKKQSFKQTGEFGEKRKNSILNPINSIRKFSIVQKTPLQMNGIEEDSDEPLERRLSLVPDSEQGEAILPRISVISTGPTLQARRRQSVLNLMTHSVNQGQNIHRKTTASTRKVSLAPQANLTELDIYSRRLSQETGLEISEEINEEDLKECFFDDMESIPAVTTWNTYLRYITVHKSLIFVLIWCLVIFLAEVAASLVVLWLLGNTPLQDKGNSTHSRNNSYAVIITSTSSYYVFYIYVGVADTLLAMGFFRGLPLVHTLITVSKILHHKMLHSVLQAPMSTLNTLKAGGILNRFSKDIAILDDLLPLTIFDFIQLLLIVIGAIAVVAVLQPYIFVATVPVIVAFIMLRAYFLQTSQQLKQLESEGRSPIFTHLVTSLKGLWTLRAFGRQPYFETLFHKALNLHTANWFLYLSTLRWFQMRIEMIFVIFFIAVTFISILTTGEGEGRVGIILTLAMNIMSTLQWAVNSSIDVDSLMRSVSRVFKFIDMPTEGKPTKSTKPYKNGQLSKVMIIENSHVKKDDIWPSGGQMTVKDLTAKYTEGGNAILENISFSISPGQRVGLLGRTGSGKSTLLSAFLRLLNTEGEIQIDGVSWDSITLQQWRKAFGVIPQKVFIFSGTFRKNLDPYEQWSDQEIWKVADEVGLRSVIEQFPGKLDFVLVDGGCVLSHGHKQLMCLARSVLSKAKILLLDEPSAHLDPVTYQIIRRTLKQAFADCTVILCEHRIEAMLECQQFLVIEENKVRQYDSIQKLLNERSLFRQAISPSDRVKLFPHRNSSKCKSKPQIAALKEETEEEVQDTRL

With COC1CCN(c2cnc(CN3C(=O)c4cccc(c4)S(=O)(=O)Nc4nc(cc(-c5c(C)cccc5C)n4)OC[C@H]3CC(C)(C)C)nc2)CC1 [Compound 718] the EC50 (Table 11) was less than 1000 nM and the Emax [1] was greater than 60%.
Cc1cccc(C)c1-c1cc2nc(n1)NS(=O)(=O)c1cccc(c1)C(=O)N(Cc1ncc(N3CCC(C)CC3)cn1)[C@H](CC(C)(C)C)CO2 [Compound 719] was tested, and the EC50 (Table 11) was less than 1000 nM and the Emax [1] was greater than 60%.
Molecule CCOc1cnc(CN2C(=O)c3cccc(c3)S(=O)(=O)Nc3nc(cc(-c4c(C)cccc4C)n3)OC[C@H]2CC(C)(C)C)nc1 [Compound 720] has an EC50 (Table 11) of less than 1000 nM and an Emax [1] greater than 60%.
With Cc1cccc(C)c1-c1cc2nc(n1)NS(=O)(=O)c1cccc(c1)C(=O)N(Cc1cccc(N3CCC(C)(O)CC3)n1)[C@H](CC(C)(C)C)CO2 [Compound 721] the EC50 (Table 11) was less than 1000 nM and the Emax [1] was greater than 60%.
COC1CCN(c2cccc(CN3C(=O)c4cccc(c4)S(=O)(=O)Nc4nc(cc(-c5c(C)cccc5C)n4)OC[C@H]3CC(C)(C)C)n2)CC1 [Compound 722] showed an EC50 (Table 11) of less than 1000 nM and an Emax [1] greater than 60%.
Cc1cccc(C)c1-c1cc2nc(n1)NS(=O)(=O)c1cccc(c1)C(=O)N(CC1CN(C(=O)OC(C)(C)C)CCO1)[C@H](CC(C)(C)C)CO2 (stereo partly drawn) [Compound 723] showed an EC50 (Table 11) of less than 1000 nM and an Emax [1] greater than 60%.
For Cc1cccc(C)c1-c1cc2nc(n1)NS(=O)(=O)c1cccc(c1)C(=O)N(Cc1ncccc1NCC(C)(C)C)[C@H](CC(C)(C)C)CO2 [Compound 724], the EC50 (Table 11) was less than 1000 nM and the Emax [1] was greater than 60%.
Molecule Cc1cccc(C)c1-c1cc2nc(n1)NS(=O)(=O)c1cccc(c1)C(=O)N(Cc1ncccc1N(C)CC(C)(C)C)[C@H](CC(C)(C)C)CO2 [Compound 725] has an EC50 (Table 11) of less than 1000 nM and an Emax [1] greater than 60%.
Cc1cccc(C)c1-c1cc2nc(n1)NS(=O)(=O)c1cccc(c1)C(=O)N(Cc1cccc(C3CCC(C)(C)CC3)n1)[C@H](CC(C)(C)C)CO2 [Compound 727] showed an EC50 (Table 11) of less than 1000 nM and an Emax [1] greater than 60%.
For Cc1cccc(C)c1-c1cc2nc(n1)NS(=O)(=O)c1cccc(c1)C(=O)N(Cc1cccc(C3CCOCC3)n1)[C@H](CC(C)(C)C)CO2 [Compound 728], the EC50 (Table 11) was less than 1000 nM and the Emax [1] was greater than 60%.
Cc1cccc(C)c1-c1cc2nc(n1)NS(=O)(=O)c1cccc(c1)C(=O)N(Cc1cccc(C(C)C)n1)[C@H](CC(C)(C)C)CO2 [Compound 729] was tested, and the EC50 (Table 11) was less than 1000 nM and the Emax [1] was greater than 60%.
Molecule CCc1cccc(CN2C(=O)c3cccc(c3)S(=O)(=O)Nc3nc(cc(-c4c(C)cccc4C)n3)OC[C@H]2CC(C)(C)C)n1 [Compound 730] has an EC50 (Table 11) of less than 1000 nM and an Emax [1] greater than 60%.
Cc1cccc(C)c1-c1cc2nc(n1)NS(=O)(=O)c1cccc(c1)C(=O)N(Cc1cccc(C(C)(C)C)n1)[C@H](CC(C)(C)C)CO2 [Compound 731] was tested, and the EC50 (Table 11) was less than 1000 nM and the Emax [1] was greater than 60%.
In the case of Cc1cccc(C)c1-c1cc2nc(n1)NS(=O)(=O)c1cccc(c1)C(=O)N(Cc1cccc(-n3cc(C(C)(C)C)cn3)n1)[C@H](CC(C)(C)C)CO2 [Compound 732], the EC50 (Table 11) is reported as less than 1000 nM and the Emax [1] is reported as greater than 60%.
With Cc1cccc(C)c1-c1cc2nc(n1)NS(=O)(=O)c1cccc(c1)C(=O)N(Cc1cccc(C3=CCOCC3)n1)[C@H](CC(C)(C)C)CO2 [Compound 733] the activation at 10 µM [2] was greater than 60%, the EC50 (Table 11) was less than 1000 nM and the Emax [1] was greater than 60%.
Cc1cccc(C)c1-c1cc2nc(n1)NS(=O)(=O)c1cccc(c1)C(=O)N(Cc1cccc(C3=CCC(C)(C)CC3)n1)[C@H](CC(C)(C)C)CO2 [Compound 734] was tested, and the activation at 10 µM [2] was greater than 60%.
Work on C=C(C)c1cccc(CN2C(=O)c3cccc(c3)S(=O)(=O)Nc3nc(cc(-c4c(C)cccc4C)n3)OC[C@H]2CC(C)(C)C)n1 [Compound 735] yielded an activation at 10 µM [2] greater than 60%, an EC50 (Table 11) of less than 1000 nM and an Emax [1] greater than 60%.
Work on Cc1cccc(C)c1-c1cc2nc(n1)NS(=O)(=O)c1cccc(c1)C(=O)N(Cc1cccc(NC(C)C)n1)[C@H](CC(C)(C)C)CO2 [Compound 736] yielded an EC50 (Table 11) of less than 1000 nM and an Emax [1] greater than 60%.
For Cc1cccc(C)c1-c1cc2nc(n1)NS(=O)(=O)c1cccc(c1)C(=O)N(Cc1cccc(N(C)C(C)C)n1)[C@H](CC(C)(C)C)CO2 [Compound 737], the EC50 (Table 11) was less than 1000 nM and the Emax [1] was greater than 60%.
CCNc1cccc(CN2C(=O)c3cccc(c3)S(=O)(=O)Nc3nc(cc(-c4c(C)cccc4C)n3)OC[C@H]2CC(C)(C)C)n1 [Compound 738] showed an EC50 (Table 11) of less than 1000 nM and an Emax [1] greater than 60%.
With Cc1cccc(C)c1-c1cc2nc(n1)NS(=O)(=O)c1cccc(c1)C(=O)N(Cc1cccc(NC(C)(C)C)n1)[C@H](CC(C)(C)C)CO2 [Compound 739] the EC50 (Table 11) was less than 1000 nM and the Emax [1] was greater than 60%.
Cc1cccc(C)c1-c1cc2nc(n1)NS(=O)(=O)c1cccc(c1)C(=O)N(Cc1ncccc1OC(C)C)[C@H](CC(C)(C)C)CO2 [Compound 741] showed an EC50 (Table 11) of less than 1000 nM and an Emax [1] greater than 60%.
In the case of CCOc1cccnc1CN1C(=O)c2cccc(c2)S(=O)(=O)Nc2nc(cc(-c3c(C)cccc3C)n2)OC[C@H]1CC(C)(C)C [Compound 742], the EC50 (Table 11) is reported as less than 1000 nM and the Emax [1] is reported as greater than 60%.
In the case of Cc1cccc(C)c1-c1cc2nc(n1)NS(=O)(=O)c1cccc(c1)C(=O)N(Cc1cc3ccccn3n1)[C@H](CC(C)(C)C)CO2 [Compound 743], the activation at 10 µM [2] is reported as less than 30%.
For Cc1cccc(C)c1-c1cc2nc(n1)NS(=O)(=O)c1cccc(c1)C(=O)N(Cc1ccc(OC(C)C)cn1)[C@H](CC(C)(C)C)CO2 [Compound 744], the EC50 (Table 11) was less than 1000 nM and the Emax [1] was greater than 60%.
Work on CCOc1ccc(CN2C(=O)c3cccc(c3)S(=O)(=O)Nc3nc(cc(-c4c(C)cccc4C)n3)OC[C@H]2CC(C)(C)C)nc1 [Compound 745] yielded an EC50 (Table 11) of less than 1000 nM and an Emax [1] greater than 60%.
Cc1cccc(C)c1-c1cc2nc(n1)NS(=O)(=O)c1cccc(c1)C(=O)N(Cc1ccc(OCCC(C)(C)C)cn1)[C@H](CC(C)(C)C)CO2 [Compound 746] showed an activation at 10 µM [2] greater than 60%.
With Cc1cccc(C)c1-c1cc2nc(n1)NS(=O)(=O)c1cccc(c1)C(=O)N(Cc1ccc(OCC(C)C)cn1)[C@H](CC(C)(C)C)CO2 [Compound 747] the activation at 10 µM [2] was greater than 60%.
Work on Cc1cccc(C)c1-c1cc2nc(n1)NS(=O)(=O)c1cccc(c1)C(=O)N(Cc1ncc(N3CCCCC3)cn1)[C@H](CC(C)(C)C)CO2 [Compound 748] yielded an activation at 10 µM [2] greater than 60%, an EC50 (Table 11) of less than 1000 nM and an Emax [1] greater than 60%.
For Cc1cccc(C)c1-c1cc2nc(n1)NS(=O)(=O)c1cccc(c1)C1Oc3ccc4ncccc4c3CN1[C@H](CC(C)(C)C)CO2 (stereo partly drawn) [Compound 750], the activation at 10 µM [3] was greater than 60%.
Work on Cc1cccc(C)c1-c1cc2nc(n1)NS(=O)(=O)c1cccc(c1)C1Oc3ccc4cccnc4c3CN1[C@H](CC(C)(C)C)CO2 (stereo partly drawn) [Compound 751] yielded an activation at 10 µM [3] greater than 60%.
With Cc1cccc(C)c1-c1cc2nc(n1)NS(=O)(=O)c1cccc(c1)C1Oc3cnc4ccccc4c3CN1[C@H](CC(C)(C)C)CO2 (stereo partly drawn) [Compound 752] the activation at 10 µM [3] was less than 300%.
Cc1cccc(C)c1-c1cc2nc(n1)NS(=O)(=O)c1cccc(c1)C1Oc3ncc4ccccc4c3CN1[C@H](CC(C)(C)C)CO2 (stereo partly drawn) [Compound 753] was tested, and the activation at 10 µM [3] was 30 to 60%.
COc1ccc2nc3c(cc2c1)CN1C(O3)c2cccc(c2)S(=O)(=O)Nc2nc(cc(-c3c(C)cccc3C)n2)OC[C@H]1CC(C)(C)C (stereo partly drawn) [Compound 754] showed an activation at 10 µM [3] greater than 60%.
Cc1cccc(C)c1-c1cc2nc(n1)NS(=O)(=O)c1cccc(c1)C1Oc3nc4ccccc4cc3CN1[C@H](CC(C)(C)C)CO2 (stereo partly drawn) [Compound 755] gave an activation at 10 µM [3] greater than 60%.
Molecule Cc1cccc(C)c1-c1cc2nc(n1)NS(=O)(=O)c1cccc(c1)C(=O)N(Cc1cc3c(cn1)OCCO3)[C@H](CC(C)(C)C)CO2 [Compound 758] has an activation at 10 µM [2] greater than 60%.
Molecule Cc1cccc(C)c1-c1nc2nc(c1C)OC[C@@H](CC(C)(C)C)N1Cc3cc(F)c(O)c(F)c3OC1c1cccc(c1)S(=O)(=O)N2 (stereo partly drawn) [Compound 763] has an activation at 10 µM [3] greater than 60%.
In the case of Cc1cccc(C)c1-c1cc2nc(n1)NS(=O)(=O)c1cccc(c1)C(=O)N(Cc1nccc3ccccc13)[C@H](CC(C)(C)C)CO2 [Compound 767], the EC50 (Table 10) is reported as less than 1000 nM and the Emax [4] is reported as greater than 60%.
With Cc1cccc(C)c1-c1cc2nc(n1)NS(=O)(=O)c1cccc(c1)C(=O)N(Cc1ccc(OCC(C)(C)C)cn1)[C@H](CC(C)(C)C)CO2 [Compound 768] the EC50 (Table 10) was 1000 to 3000 nM and the Emax [4] was greater than 60%.
In the case of COc1c(F)cc(CN2C(=O)c3cccc(c3)S(=O)(=O)Nc3nc(cc(-c4c(C)cccc4C)n3)OC[C@H]2CC(C)(C)C)cc1F [Compound 769], the activation at 10 µM [3] is reported as greater than 60%.
With COc1ccc(CN2C(=O)c3cccc(c3)S(=O)(=O)Nc3nc(cc(-c4c(C)cccc4C)n3)OC[C@H]2CC(C)(C)C)cc1 [Compound 770] the EC50 (Table 10) was less than 1000 nM and the Emax [4] was greater than 60%.
Molecule Cc1cccc(C)c1-c1cc2nc(n1)NS(=O)(=O)c1cccc(c1)C(=O)N(Cc1ncccc1CCC(C)(C)ON)[C@H](CC(C)(C)C)CO2 [Compound 771] has an activation at 10 µM [3] greater than 60%, an EC50 (Table 10) of less than 1000 nM and an Emax [4] greater than 60%.
COc1cnc(CN2C(=O)c3cccc(c3)S(=O)(=O)Nc3nc(cc(-c4c(C)cccc4C)n3)OC[C@H]2CC(C)(C)C)nc1 [Compound 772] gave an EC50 (Table 10) of less than 1000 nM and an Emax [4] greater than 60%.
With COc1ccnc(CN2C(=O)c3cccc(c3)S(=O)(=O)Nc3nc(cc(-c4c(C)cccc4C)n3)OC[C@H]2CC(C)(C)C)n1 [Compound 773] the EC50 (Table 10) was less than 1000 nM and the Emax [4] was greater than 60%.
Cc1cccc(C)c1-c1cc2nc(n1)NS(=O)(=O)c1cccc(c1)C(=O)N(Cc1cnnn1C)[C@H](CC(C)(C)C)CO2 [Compound 774] was tested, and the activation at 10 µM [2] was greater than 60%.
Work on CNC(=O)COc1ccccc1CN1C(=O)c2cccc(c2)S(=O)(=O)Nc2nc(cc(-c3c(C)cccc3C)n2)OC[C@H]1CC(C)(C)C [Compound 775] yielded an activation at 10 µM [3] greater than 60%.
Work on CNC(=O)COc1ccccc1CN1C(=O)c2cccc(c2)S(=O)(=O)Nc2nc(cc(-c3c(C)cccc3C)n2)OC[C@H]1CC(C)(C)C [Compound 776] yielded an EC50 (Table 10) of less than 1000 nM and an Emax [4] greater than 60%.
Cc1cccc(C)c1-c1cc2nc(n1)NS(=O)(=O)c1cccc(c1)C(=O)N(Cc1ccccc1OCC(=O)NN)[C@H](CC(C)(C)C)CO2 [Compound 777] was tested, and the activation at 10 µM [3] was greater than 60%.
